Measurements from patent publication US20080161268A1, “[…] AMMONIUM SALT ANTIBACTERIAL AND WATER-BORNE COATING MATERIAL HAVING […] CONTAINING THE SAME” (COMPAL ELECTRONICS, INC., priority 2006, published 2008).

Experiments:
[1] = Test of the stability of antibacterial in latex paint; format: physicochemical; settings: pH about 7
Protocol: Four quaternary ammonium salt antibacterials A, B, C, and D shown in table 1 were prepared respectively, in which A was a quaternary ammonium salt antibacterial having the siloxane structure, and the other three antibacterials B, C, and D were quaternary ammonium salt antibacterials having no siloxane structure. Then, the four antibacterials A, B, C, and D were respectively added into a latex paint, and formulated to have a concentrations of 500, 1500, 2500, and 5000 ppm, and the pH value was adjusted to about 7. Changes of the antibacterials in the latex paint were observed.

[2] = Potential measurement (surface potential, Zetasizer Nano ZS); format: physicochemical; settings: concentration about 5%, pH 0-7, FIG. 1
Protocol: The methanol solution including 45% of the organic quaternary ammonium salt A having the siloxane structure and the methanol solution including 45% of the organic quaternary ammonium salt Bhaving no siloxane structure were respectively adjusted to a pH value of 0-7 by 0.1 N HCl and 0.1 N NaOH, and formulated to have a concentration of about 5%. The surface potentials were measured with Zetasizer, Nano ZS (Malvern, United Kingdom).

Bacteria = assay: Antibiotic experiment according to Japanese Standards Testing Method (JISZ 2801-2000); format: cell-based; settings: for Antimicrobial Activity Value: versus control group (neat cement paint)
Protocol: After formulating the organic quaternary ammonium salt having the siloxane structure to have a concentration of 5% and adjusting the pH value to be 7, an antibiotic experiment was performed according to Japanese Standards Testing Method (JISZ 2801-2000).

## CCCCCCCCCCCCCCCCCC[N+](C)(C)[Si](OC)(OC)OC.[Br-] [Antibacterial A]
[1]; 500-5000 ppm
  Miscibility in the latex paint: good miscibility
[1]; content of antibacterial 500 ppm
  Changes of the antibacterial in the latex paint: miscible
[1]; content of antibacterial 1500 ppm
  Changes of the antibacterial in the latex paint: miscible
[1]; content of antibacterial 2500 ppm
  Changes of the antibacterial in the latex paint: miscible
[1]; content of antibacterial 5000 ppm
  Changes of the antibacterial in the latex paint: miscible
[2]
  Electronegativity (surface potential) versus pH value: increased with the increment of pH value
Bacteria; 0 h
  Bacteriostatic Ratio: less than 90%
  Antimicrobial Activity Value: 0.47
Bacteria; 0 h, concentration 5%, pH 7
  Bacteria count at 0 h * 3 sheets: 3.73 × 10^5
Bacteria; 3 h
  Bacteriostatic Ratio: 99%
  Antimicrobial Activity Value: 2.95
Bacteria; 3 h, concentration 5%, pH 7
  Bacteria count at 3 h * 3 sheets: 1.48 × 10^3
Bacteria; 24 h
  Bacteriostatic Ratio: 99.99%
  Antimicrobial Activity Value: 4.89
Bacteria; 24 h, concentration 5%, pH 7
  Bacteria count at 24 h * 3 sheets: <10
Bacteria; concentration 5%, pH 7, time not given
  Bacteriostatic Ratio: greater than 99.99%
